{"source": "paper PMC6337497", "about": "(International Journal of Molecular Sciences, 2018)", "key": {"DU145 cells [1]": {"test_system": "DU145 cells", "experiment": "Western blot of total cellular lysates, DU145", "format": "cell-based, Human", "conditions": "DU145, 48 h at GI50 dose", "experimental": "Actin was used as loading control. Whole-cell protein extracts were prepared by resuspending cells into 1X SDS sample buffer (25 mM Tris-HCl pH 6.8, 1.5 mM EDTA, 20% glycerol, 2% SDS, 5% β-mercaptoethanol, 0.0025% Bromophenol blue). Equivalent amounts of cellular extracts were resolved by SDS-PAGE, electrotransferred to PVDF membrane (GE Healthcare Italia, Milan, Italy) and immunoblotted with the following primary antibodies: anti-phospo-H2AX (sc-101696), anti-p53 (DO1) (sc-126), anti-actin ([MUT]) (sc-1616) and anti-PARP (sc-8007) antibody from Santa Cruz Biotecnology, Inc, Dallas, TX, USA.; phospho-specific AKT antibody S473 (#9018) and T308 (#9275), Akt antibody (#9272 and #2967), phospho-specific ERK1/2 antibody T202/Y204 (#4370), ERK1/2 antibody (#4669), phospho-specific p38 MAPK antibody T180/Y182 (#9211), and p38 antibody (#9212) were purchased from Cell Signaling Technologies, Danvers, MA, USA. Membranes were blotted and scanned with Bio-Rad ChemiDocTM Touch Imaging System (Bio-Rad, Hercules, CA, USA), using chemiluminescent detection reagents from Cyanagen, Bologna, Italy (Westar ηC and Supernova HRP substrates for Western blotting)."}, "DU145 cells [2]": {"test_system": "DU145 cells", "experiment": "Anchorage-independent colony formation assay, DU145", "format": "cell-based, Human", "conditions": "DU145, 10 µM", "procedure": "For anchorage-independent colony formation assay, 0.6% low melt agarose gel with 10% FBS in appropriate complete cell growth medium was prepared and added to the wells of a twelve-well culture dish as a base agar. […] PC3 and DU145 cells were allowed to grow at 37 °C for three weeks (PC3) or five weeks (DU145). The effect of the drugs on anchorage-independent growth was determined by colony growth. Colonies were stained with 0.07% crystal violet and formed colonies were imaged. The numbers of colonies with radius ≥ 7 pixels were counted with automated colony counter (OpenCFU 3.9.0) and average number of colonies was plotted against drug concentrations. Colony numbers were normalized as a percentage of colonies formed following DMSO treatment."}, "PC3 cells [3]": {"test_system": "PC3 cells", "experiment": "MTT cell viability assay, PC3", "format": "cell-based, Human", "conditions": "Homo sapiens, PC-3, 48 h, 48 h treatment, MTT", "procedure": "Human prostate cancer PC3 cells (CRL 1435, ATCC, Manassas, VA, USA) were grown in Ham’s F12 nutrient medium, human prostate cancer DU145 cells (HTB-81, ATCC, Manassas, VA, USA) in RPMI 1640 medium and human colorectal carcinoma HCT116 cells (CCL-247, ATCC, Manassas, VA, USA) in IMDM medium. All media (Biowest, Nuaillé, France) were supplemented with 10% Foetal Bovine Serum (Gibco-Thermo Fisher Scientific, Waltham, MA, USA), L-glutamine, penicillin, and streptomycin (Euroclone, Milan, Italy), and grown at 37 °C in a humidified 5% CO2 atmosphere.\nDMSO was used as control.\n(§1) The inhibition of cell proliferation was measured by colorimetric MTT assay and the concentration at which cellular growth is inhibited by 50% (GI50) was determined. Briefly, cells were seeded into 96-well plates at a density of 2000 cells/well. The following day, cells were treated with the indicated compounds and analyzed for cell viability after 48 h. 5 mg/mL thiazolyl blue tetrazolium bromide (Sigma-Aldrich, St. Louis, MO, USA) was added to each well at a final concentration of 0.5 mg/mL and the plates were incubated at 37 °C for 2 h. Medium containing unconverted MTT was removed and 100 µL MTT solvent (4 mM HCl, 0.1% NP-40 in isopropyl alcohol) was added to each well. The plate was gently rotated on an orbital shaker in the dark for 15 min, before the measurements of absorbance at 570 nm. The viability of untreated cells was arbitrarily set at 100%."}, "PC3 cells [4]": {"test_system": "PC3 cells", "experiment": "K3F21/docetaxel co-administration, MTT and CompuSyn, PC3", "format": "cell-based, Human", "conditions": "PC3, K3F21/DTX combinations", "procedure": "as §1\n(§2) The ability of K3F21 and docetaxel to act synergistically with regard to growth inhibition was determined using CompuSyn software (ComboSyn, Inc., freely available at http://www.combosyn.com). Combination index (CI) and drug reduction index (DRI) were calculated for each concentration of drugs mixture, as indicated in the text. CI <1, =1 or >1 indicates synergism, additive effect, or antagonism, respectively. DRI >1 or <1 indicates favorable or not favorable dose-reduction."}, "DU145 cells [5]": {"test_system": "DU145 cells", "experiment": "Cell migration (wound) assay, DU145", "format": "cell-based, Human", "conditions": "DU145, GI50 dose, 16 h", "procedure": "4 × 10^5 prostate cancer cells were plated in a 12-well plate. Approximately 24 h later, when the cells were 100% confluent, the monolayer was scratched using a 200 µL pipette tip. […] Three biological replicates were performed. Three random pictures were taken for each treated well per experiment and the areas of the wounds measured using ImageJ software. The percentage of wound recovery was then calculated using the formula: (final area-initial area)/initial area × 100%."}, "HCT116 cells": {"test_system": "HCT116 cells", "experiment": "MTT cell viability assay, HCT116", "format": "cell-based, Human", "conditions": "HCT116, 48 h", "experimental": "Human prostate cancer PC3 cells (CRL 1435, ATCC, Manassas, VA, USA) were grown in Ham’s F12 nutrient medium, human prostate cancer DU145 cells (HTB-81, ATCC, Manassas, VA, USA) in RPMI 1640 medium and human colorectal carcinoma HCT116 cells (CCL-247, ATCC, Manassas, VA, USA) in IMDM medium. All media (Biowest, Nuaillé, France) were supplemented with 10% Foetal Bovine Serum (Gibco-Thermo Fisher Scientific, Waltham, MA, USA), L-glutamine, penicillin, and streptomycin (Euroclone, Milan, Italy), and grown at 37 °C in a humidified 5% CO2 atmosphere. The inhibition of cell proliferation was measured by colorimetric MTT assay [51] and the concentration at which cellular growth is inhibited by 50% (GI50) was determined. Briefly, cells were seeded into 96-well plates at a density of 2000 cells/well. The following day, cells were treated with the indicated compounds and analyzed for cell viability after 48 h. 5 mg/mL thiazolyl blue tetrazolium bromide (Sigma-Aldrich, St. Louis, MO, USA) was added to each well at a final concentration of 0.5 mg/mL and the plates were incubated at 37 °C for 2 h. Medium containing unconverted MTT was removed and 100 µL MTT solvent (4 mM HCl, 0.1% NP-40 in isopropyl alcohol) was added to each well. The plate was gently rotated on an orbital shaker in the dark for 15 min, before the measurements of absorbance at 570 nm. […]"}, "[6]": {"experiment": "pH-metric titration, acid-base behavior (UV-vis, HypSpec)", "format": "physicochemical", "conditions": "pH 7", "procedure": "pH-metric titrations were performed in order to assess K3F acidity and predict the most abundant species in physiological condition. […] Overall protonation constants (βHL) were calculated from spectrophotometric data and optimized by means of HypSpec software (Supplementary Table S1). K3F23, K3F24 and K3F33 behaved as weak monoprotic acids, with a pKa value close to 8–8.50 associated to the keto-enol moiety. As for the other two ligands, namely K3F21 and K3F31, the acid-base equilibria were more complex in view of the polyprotic nature of the compounds, and three logβLH values were calculated. Species distribution curves (Supplementary Figure S2) provided reliable prediction of neutral and charged forms as function of pH, and consequently helped to envisage cell penetration and distribution in physiological conditions. […] As for K3F21 and K3F31, they behaved as less weak acids, in fact at pH 7 58% of K3F21 and 65% of K3F31 were found in the mono-dissociated negatively charged form (H2L^−), these percentages increased up to 74% and 86% respectively at pH 7.4. […] This outcome could be attributed to the stabilizing effect of the intramolecular hydrogen bond between the methoxyl and hydroxyl groups on the aromatic ring in the indissociated form of K3F21, which shifts the equilibrium in favor of the neutral species (H3L).\nUV-vis spectrophotometric measurements were performed using Jasco V-570 spectrophotometer at 25.0 ± 0.1 °C in the 200–600 nm spectral range employing 1 cm quartz cells. Owing to the poor water solubility of the compounds, a methanol mother solution (5 × 10^−3 M) was diluted in water in order to give 50 µM solutions used for pH-metric titrations. The pH value was varied by adding small amounts of concentrated NaOH or HCl, 25 points in the pH range 3–10. A constant ionic strength of 0.1 M (NaNO3) was maintained in all the experiments. Each titration was performed at least three times. The overall protonation constants (logβLH) were evaluated from spectrophotometric data using the software HypSpec."}, "PC3 cells [7]": {"test_system": "PC3 cells", "experiment": "Anchorage-dependent colony formation assay, PC3", "format": "cell-based, Human", "procedure": "For anchorage-dependent colony formation assay, 1000 PC3 or 500 DU145 cells were plated in 6-well plates. […] After 7–10 days, the plates were washed, fixed and stained with 0.5% crystal violet solution in 20% Methanol. […] Colony numbers were normalized as a percentage of colonies formed following DMSO treatment."}, "DU145 cells [8]": {"test_system": "DU145 cells", "experiment": "K3F21/docetaxel co-administration, MTT and CompuSyn, DU145", "format": "cell-based, Human", "conditions": "48 h", "procedure": "as §1, §2"}}, "data": [{"smiles": "COc1cc(/C=C/C(=O)C(CCCN2C(=O)c3ccccc3C2=O)C(=O)/C=C/c2ccc(O)c(OC)c2)ccc1O", "note": "[K3F21]", "values": [{"measurement": "ERK1/2 phosphorylation", "setting": "DU145 cells [1]", "result": "increased"}, {"measurement": "PARP-1 cleavage (apoptotic cell death)", "setting": "DU145 cells [1]", "result": "activation of apoptotic cell death"}, {"measurement": "phospho-p38 expression", "setting": "DU145 cells [1]", "result": "no changes were observed"}, {"measurement": "γH2AX expression (marker of DNA damage)", "setting": "DU145 cells [1]", "result": "triggered DNA damage"}, {"measurement": "decrease in colony formation, anchorage-independent", "setting": "DU145 cells [2]", "result": "up to 95%"}, {"measurement": "GI50", "setting": "PC3 cells [3]", "result": 7.9, "unit": "µM"}, {"measurement": "cell growth of co-administration compared to single administration", "setting": "PC3 cells [4]", "result": "none of the evaluated K3F21/DTX combinations affected cell growth"}, {"measurement": "cell migration (wound recovery)", "setting": "DU145 cells [5]", "result": "exerted inhibitory effects on the migratory capacity"}, {"measurement": "anti-proliferative activity compared to the other derivatives", "setting": "HCT116 cells", "result": "most active molecule"}, {"measurement": "mono-dissociated negatively charged form (H2L−)", "setting": "[6]", "result": 58, "unit": "%"}, {"measurement": "anchorage-dependent colony formation", "setting": "PC3 cells [7]; PC3, 5 µM", "result": "quite completely abolished"}, {"measurement": "anchorage-dependent colony growth", "setting": "PC3 cells [7]; PC3, 7 days, different doses", "result": "clearly inhibited cell growth when administered at lower concentrations than curcumin"}, {"measurement": "cell viability of co-administration compared to independent treatments", "setting": "DU145 cells [8]; DU145, K3F21 and DTX 20nM", "result": "significant decrease in cell viability"}, {"measurement": "Combination Index (CI)", "setting": "DU145 cells [8]; DU145, K3F21 co-administered with DTX 20nM", "result": 0.8}]}]}
